Like-named read-outs stand apart in the source and are kept apart here.

The target of test [1] is T1, Full length WRN protein (aa 2-1432) (Homo sapiens (Human), UniProt Q14191). Kind of test: WRN ATPase ADP-Glo biochemical assay, Assay Format A (10 μM ATP). Conditions: 0.25 nM WRN, 100 nM C6.18 ssDNA, 30 min preincubation, read-out: ATPase ADPGlo AC50 (uM)- Assay Format A. The procedure, abridged:
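ADP-Glo luminescence measured hydrolysis of ATP by purified, baculovirus-expressed N-terminally tagged full-length WRN. Enzyme (0.5 nM) was preincubated 30 min with compound, then 200 nM ssDNA C6.18 plus 20 μM ATP were added (pre-mix levels) for 30 min at RT. IC50s come from four-parameter fits, geometric mean of at least two trials.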

Another test concerns HCT116 cells. Kind of test: HCT116 (MSI) 7 day viability, CellTiter Glo. Conditions: 7 days, read-out: HCT116 (MSI) Viability 7 Day Abs AC50. Format: cell-based. The procedure, abridged:
(§1)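 10 mM DMSO stocks serially diluted 3-fold, 10 steps; cells added (HCT116 50/well, HT29 500/well); 7 d, 37 °C, 5% CO2; CellTiter Glo 20 min RT; luminescence.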
For orientation: Cellular ATP, detected with luciferase, serves as a proxy for viable cell number.

Test [2] deals with T1, Full length WRN protein (aa 2-1432). Kind of test: WRN ATPase ADP-Glo biochemical assay, Assay Format B (100 μM ATP). Conditions: 0.25 nM WRN, 100 nM C6.18 ssDNA, 60 min preincubation, read-out: ATPase ADPGlo AC50 (uM)- Assay Format B.
For the next test, the system named is HT29 cells. Kind of test: HT29 (MSS) 7 day viability, CellTiter Glo. Format: cell-based. Conditions: 7 days, read-out: HT29 (MSS) Viability 7 Day CTGAbs AC50. The procedure, abridged: as §1

T1 sequence (Q14191 2-1432): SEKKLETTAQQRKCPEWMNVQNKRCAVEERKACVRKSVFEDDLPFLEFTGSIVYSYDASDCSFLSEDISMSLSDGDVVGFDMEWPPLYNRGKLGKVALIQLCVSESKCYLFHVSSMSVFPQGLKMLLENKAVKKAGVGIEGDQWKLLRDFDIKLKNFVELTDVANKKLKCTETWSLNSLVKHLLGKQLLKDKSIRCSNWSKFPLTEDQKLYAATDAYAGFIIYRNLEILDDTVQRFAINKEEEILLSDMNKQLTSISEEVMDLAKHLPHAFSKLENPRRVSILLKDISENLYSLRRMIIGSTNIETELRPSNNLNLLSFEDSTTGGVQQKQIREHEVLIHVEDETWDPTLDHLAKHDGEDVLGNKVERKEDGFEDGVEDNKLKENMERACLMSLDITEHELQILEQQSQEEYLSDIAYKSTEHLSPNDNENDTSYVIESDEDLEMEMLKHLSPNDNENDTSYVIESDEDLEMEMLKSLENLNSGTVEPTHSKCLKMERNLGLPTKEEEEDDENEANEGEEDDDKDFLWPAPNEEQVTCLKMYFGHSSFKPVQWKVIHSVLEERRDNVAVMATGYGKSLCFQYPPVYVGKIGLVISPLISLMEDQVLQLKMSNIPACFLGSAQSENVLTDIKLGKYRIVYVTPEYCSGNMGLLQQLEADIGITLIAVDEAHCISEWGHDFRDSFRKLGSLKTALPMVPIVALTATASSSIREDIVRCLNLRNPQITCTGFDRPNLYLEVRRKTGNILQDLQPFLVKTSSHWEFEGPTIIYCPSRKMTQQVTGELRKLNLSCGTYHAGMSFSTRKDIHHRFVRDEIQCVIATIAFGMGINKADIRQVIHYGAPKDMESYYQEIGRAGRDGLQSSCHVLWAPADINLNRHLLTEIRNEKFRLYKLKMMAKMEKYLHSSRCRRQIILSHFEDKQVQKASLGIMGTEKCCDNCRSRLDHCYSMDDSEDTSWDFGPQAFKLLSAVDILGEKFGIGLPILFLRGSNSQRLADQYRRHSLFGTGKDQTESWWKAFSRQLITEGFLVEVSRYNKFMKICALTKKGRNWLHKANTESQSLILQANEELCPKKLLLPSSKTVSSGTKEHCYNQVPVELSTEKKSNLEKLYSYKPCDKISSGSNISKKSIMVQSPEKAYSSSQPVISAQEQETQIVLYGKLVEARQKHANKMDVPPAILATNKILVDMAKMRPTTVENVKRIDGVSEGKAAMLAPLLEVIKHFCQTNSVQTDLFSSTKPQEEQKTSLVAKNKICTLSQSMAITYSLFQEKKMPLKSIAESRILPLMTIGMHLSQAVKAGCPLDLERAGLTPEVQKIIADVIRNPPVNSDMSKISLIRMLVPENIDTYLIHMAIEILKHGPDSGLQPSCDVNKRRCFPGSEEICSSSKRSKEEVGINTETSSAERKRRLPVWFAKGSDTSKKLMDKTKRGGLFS

As a reminder, the AC50 is the midpoint of the concentration-response curve, whichever way the signal moves. With `C=CC(=O)N1CCc2nn(-c3ccc(C4CC4)cc3O)c3c2C(C1)N(C(=O)c1cnc(C(F)(F)F)c(F)c1N)CC3` (stereo not shown) [Compound 194, 1-(5-(4-amino-5-fluoro-6-(trifluoromethyl)nicotinoyl)-2-(4-cyclopropyl-2-hydroxyphenyl)-2,3,4,5,5a,6,8,9-octahydro-7H-1,2,5,7-tetraazabenzo[cd]azulen-7-yl)prop-2-en-1-one], the AC50 is 0.0015 to 0.005 µM in test [1]; 0.001 to 0.1 µM with HCT116 cells (Homo sapiens, HCT-116, 168 h); 0.005 to 0.015 µM in test [2]; greater than 3 µM with HT29 cells (Homo sapiens, HT-29, 168 h).

Consider `C=CC(=O)N1CC(C)c2nn(-c3ccc(C4CC4)cc3O)c3c2C(C1)N(C(=O)c1cnc(C(F)(F)F)cc1N)CC3` (stereo not shown) [Compound 195, 1-(5-(4-amino-6-(trifluoromethyl)nicotinoyl)-2-(4-cyclopropyl-2-hydroxyphenyl)-9-methyl-2,3,4,5,5a,6,8,9-octahydro-7H-1,2,5,7-tetraazabenzo[cd]azulen-7-yl)prop-2-en-1-one], for which the AC50 in test [1] is less than 0.0015 µM; in the test on HCT116 cells, 0.001 to 0.1 µM; in test [2], 0.005 to 0.015 µM; in the test on HT29 cells, greater than 3 µM.

As for `C=CC(=O)N1CCc2nn(-c3ccc(C4CC4)cc3O)c3c2C(C1)N(C(=O)c1cnc(Cl)cc1N)CC3` (stereo not shown) [Compound 196, 1-(5-(4-amino-6-chloronicotinoyl)-2-(4-cyclopropyl-2-hydroxyphenyl)-2,3,4,5,5a,6,8,9-octahydro-7H-1,2,5,7-tetraazabenzo[cd]azulen-7-yl)prop-2-en-1-one], the AC50 in test [1] is less than 0.0015 µM; in the test with HCT116 cells (Homo sapiens, HCT-116, 168 h), 0.001 to 0.1 µM; in test [2], 0.005 to 0.015 µM; in the test on HT29 cells (Homo sapiens, HT-29, 168 h), greater than 3 µM.

With `C=CC(=O)N1CC(OC2CC(C#N)C2)c2nn(-c3ccc(C4CCC4)cc3)c3c2C(C1)N(C(=O)c1cnc(C(F)(F)F)cc1N)CC3` (stereo not shown) [Compound 198, 3-((7-acryloyl-5-(4-amino-6-(trifluoromethyl)nicotinoyl)-2-(4-cyclobutylphenyl)-3,4,5,5a,6,7,8,9-octahydro-2H-1,2,5,7-tetraazabenzo[cd]azulen-9-yl)oxy)cyclobutane-1-carbonitrile], the concentration at half-maximal activity (AC50) in test [1] was less than 0.0015 µM; in the test on HCT116 cells (Homo sapiens, HCT-116, 168 h), 0.001 to 0.1 µM; in test [2], 0.005 to 0.015 µM; in the test with HT29 cells (Homo sapiens, HT-29, 168 h), greater than 3 µM.

Regarding `C=CC(=O)N1CCc2nn(-c3ccc(C4CC4)cc3O)c3c2C(C1)N(C(=O)c1ccc(Cl)nc1N)CC3` (stereo not shown) [Compound 199, 1-(5-(2-amino-6-chloronicotinoyl)-2-(4-cyclopropyl-2-hydroxyphenyl)-2,3,4,5,5a,6,8,9-octahydro-7H-1,2,5,7-tetraazabenzo[cd]azulen-7-yl)prop-2-en-1-one], the AC50 was less than 0.0015 µM in test [1]; 0.001 to 0.1 µM in the test on HCT116 cells (Homo sapiens, HCT-116, 168 h); 0.005 to 0.015 µM in test [2]; greater than 3 µM in the test on HT29 cells (Homo sapiens, HT-29, 168 h).

Consider `C=CC(=O)N1CCc2nn(-c3ccc(C4CC4)cc3O)c3c2C(C1)N(C(=O)c1cc(F)c(C(F)(F)F)nc1N)CC3` (stereo not shown) [Compound 200, 1-(5-(2-amino-5-fluoro-6-(trifluoromethyl)nicotinoyl)-2-(4-cyclopropyl-2-hydroxyphenyl)-2,3,4,5,5a,6,8,9-octahydro-7H-1,2,5,7-tetraazabenzo[cd]azulen-7-yl)prop-2-en-1-one], for which the AC50 in test [1] is less than 0.0015 µM; in the test with HCT116 cells (Homo sapiens, HCT-116, 168 h), 0.001 to 0.1 µM; in test [2], 0.015 to 0.055 µM; in the test on HT29 cells (Homo sapiens, HT-29, 168 h), greater than 3 µM.

Consider `C=CC(=O)N1CCc2nn(Cc3ccccc3)c3c2C(C1)N(C(=O)c1cnc(C(F)(F)F)cc1N)CC3` (stereo not shown) [Compound 201, 1-(5-(4-amino-6-(trifluoromethyl)nicotinoyl)-2-benzyl-2,3,4,5,5a,6,8,9-octahydro-7H-1,2,5,7-tetraazabenzo[cd]azulen-7-yl)prop-2-en-1-one], for which the AC50 in test [1] is greater than 0.055 µM; in the test on HCT116 cells (Homo sapiens, HCT-116, 168 h) it was greater than 1 µM; in test [2], less than 0.0015 µM; with HT29 cells (Homo sapiens, HT-29, 168 h), greater than 3 µM.

The values above are taken from patent US20250346600A1, “TRICYCLIC DERIVATIVES AND RELATED USES” (MOMA Therapeutics, Inc., priority 2023, published 2025).
